# System: eye
# Assay: Acute non-GLP IVT ocular tolerability and toxicity study of sunitinib malate (free drug)
# Type: in vivo, pigmented rabbits
# Settings: single bilateral IVT injection, up to 7 days
# Protocol: An acute, non-GLP IVT study was conducted to evaluate the ocular tolerability and toxicity of sunitinib malate (free drug) for up to 7 days following a single IVT injection. Sunitinib malate was formulated in phosphate buffered saline and injected bilaterally (0.1 mL) at 0.125 or 1.25 mg per eye.
smiles,measurement,value
CCN(CC)CCNC(=O)c1c(C)[nH]c(/C=C2\C(=O)Nc3ccc(F)cc32)c1C [sunitinib malate],no-observed-adverse-effect-level (NOAEL) dose,0.125 mg/eye
